Assay results: article PMC2705510, “Measurement of Nanomolar Dissociation Constants by Titration Calorimetry and Thermal Shift Assay – Radicicol Binding to Hsp90 and Ethoxzolamide Binding to CAII” (2009)

Molecular target: T1, Hsp90αN (N-terminal domain of human Hsp90α) (Homo sapiens, UniProt P07900)
T1 construct: gene HSP90AA1; N-terminal domain, amino acids 3–241, N-terminal His6 tag
Assay: ITC; weak ligand displaced by radicicol (association constant Kb given)
Type: binding

Work on `COCCOC(=O)c1ccc(O)cc1O` [compound 1] yielded a Kd of 50 µM.
